Results from US20250270213A1, “PI3Ka INHIBITORS” (Synnovation Therapeutics, Inc., priority 2022, published 2025).

Key:
Type in all cases: cell-based
SKBR3 (PIK3CA WT) cells = assay: pS473 AKT assay, SKBR3 cells; settings: Homo sapiens, SK-BR-3, pSer473 AKT, complete medium with 10% fetal bovine serum, 2 h treatment, read-out: SKBR3_IC50
Procedure: (§1) Example A. pS473 AKT Assay Protocol
(§2) SKBR3 (PIK3CA WT), MCF7 (PIK3CA E545K), and T47D (PIK3CA H1047R) cells were cultured using 10-cm petri dishes with recommended medium plus 10% fetal bovine serum. One day before the assay, cells were seeded in 96-well plates at a final density of 10,000 cells per well. After overnight incubation in complete medium, cells were treated with different concentrations of PI3Kα inhibitors for 2 h. Cells were then fixed using 4% paraformaldehyde at room temperature for 20 min. Aspirate 4% paraformaldehyde, and wash cells using 1× regular phosphate buffered saline 3 times, 5 min each. Aspirate any residual phosphate buffered saline and block cells using 10% goat serum containing 1% bovine serum albumin and 0.3% Triton X-100 at room temperature for 1 h. Without any additional washing, primary antibodies (rabbit anti-pSer473 AKT) were diluted using blocking buffer and added at a final volume of 50 microliter per well. Keep assay plates with primary antibodies overnight at 4° C. Wash cells using 1× regular phosphate buffered saline 3 times, 5 min each. After the final wash, incubate cells with horseradish peroxidase-conjugated secondary antibodies (goat Anti-rabbit IgG) diluted using the same blocking buffer at room temperature for 1 h. Wash cells thoroughly using 1× regular phosphate buffered saline 3 times, 5 min each. Aspirate any residual phosphate buffered saline. Add Super-Signal ELISA Pico Chemiluminescent Substrate at a final volume of 100 microliter per well. Read plates on i3x Multi-Mode Microplate Reader and calculate IC50 values using GraphPad Prism software.

[1] = tested on: T47D (PIK3CA H1047R) cells; assay: pS473 AKT assay, T47D cells; settings: Homo sapiens, pSer473 AKT, complete medium with 10% fetal bovine serum, 2 h treatment, read-out: T47D_IC50
Procedure: as §1, §2

[2] = tested on: MCF7 (PIK3CA E545K) cells; assay: pS473 AKT assay, MCF7 cells; settings: Homo sapiens, pSer473 AKT, complete medium with 10% fetal bovine serum, 2 h treatment, read-out: MCF7_IC50
Procedure: as §1, §2

| SMILES | IC50 (SKBR3 (PIK3CA WT) cells) | IC50 [1] | IC50 [2] |
| --- | --- | --- | --- |
| Cc1cc(C(C)Nc2ccccc2C(=O)O)c2c(c1)c(=O)n(C)c1ccnn21 (stereo not drawn) [Compound I-1, 2-((1-(4,7-dimethyl-5-oxo-4,5-dihydropyrazolo[1,5-a]quinazolin-9-yl)ethyl)amino)benzoic acid] | > 30 µM | 1 to 5 µM | > 30 µM |
| Cc1cc(C(C)Nc2ccccc2C(=O)O)c2c(c1)c(=O)n(C)c1c(-c3ccccc3)cnn21 (stereo not drawn) [Compound I-2, 2-((1-(4,7-dimethyl-5-oxo-3-phenyl-4,5-dihydropyrazolo[1,5-a]quinazolin-9-yl)ethyl)amino)benzoic acid] | > 30 µM | 1 to 5 µM | > 30 µM |
| C=Cc1cnn2c3c(C(C)Nc4ccccc4C(=O)O)cc(C)cc3c(=O)n(C)c12 (stereo not drawn) [Compound I-3, 2-((1-(4,7-dimethyl-5-oxo-3-vinyl-4,5-dihydropyrazolo[1,5-a]quinazolin-9-yl)ethyl)amino)benzoic acid] | > 30 µM | 1 to 5 µM | > 30 µM |
